# Target: HR1 region of HIV-1 gp41 (immobilized biotinylated HR1 peptide Biotin-T-2324) (Human immunodeficiency virus type 1 group M subtype B, UniProt P04582, G556A)
# Assay: BIAcore surface plasmon resonance analysis of the binding to the HR1 region
# Conditions: SPR, BIAcore 3000, 25° C., HBS-P buffer, 1:1 Langmuir binding model
smiles,measurement,value
"CC[C@H](C)[C@H](NC(=O)[C@H](CCC(N)=O)NC(=O)[C@H](C)NC(=O)[C@H](CCC(N)=O)NC(=O)[C@H](CCC(=O)O)NC(=O)[C@H](CC(C)C)NC(=O)[C@H](CC(C)C)NC(=O)[C@H](C)NC(=O)[C@@H](NC(=O)[C@@H](NC(=O)[C@H](CCCCN)NC(=O)[C@H](CCC(N)=O)NC(=O)[C@H](CCC(=O)O)NC(=O)[C@H](Cc1c[nH]c2ccccc12)NC(=O)[C@H](CCC(=O)O)NC(=O)[C@H](CCC(N)=O)NC(=O)[C@H](Cc1c[nH]c2ccccc12)NC(C)=O)[C@@H](C)CC)[C@@H](C)O)C(=O)N[C@@H](CCC(N)=O)C(=O)N[C@@H](CCC(N)=O)C(=O)N[C@@H](CCC(=O)O)C(=O)N[C@@H](CCCCN)C(=O)N[C@@H](CC(N)=O)C(=O)N[C@@H](CCC(=O)O)C(=O)N[C@@H](Cc1ccc(O)cc1)C(=O)N[C@@H](CCC(=O)O)C(=O)N[C@@H](CC(C)C)C(=O)N[C@@H](CCC(N)=O)C(=O)N[C@@H](CCCCN)C(=O)N[C@@H](CC(C)C)C(=O)N[C@@H](CC(=O)O)C(=O)N[C@@H](CCCCN)C(=O)N[C@@H](Cc1c[nH]c2ccccc12)C(=O)N[C@@H](C)C(=O)N[C@@H](CO)C(=O)N[C@@H](CC(C)C)C(=O)N[C@@H](Cc1c[nH]c2ccccc12)C(=O)N[C@@H](CCC(=O)O)C(=O)N[C@@H](Cc1c[nH]c2ccccc12)C(=O)N[C@@H](Cc1ccccc1)C(N)=O [Rob T-1249, WQEWEQKITALLEQAQIQQEKNEYELQKLDKWASLWEWF]",ka (association rate constant),6.4 * 10^5 1/ms
same,kd (dissociation rate constant),0.000845 s⁻¹

# Source: patent publication US20090143288A1, “Peptide-complement conjugates” (Roche Palo Alto LLC, priority 2007, published 2009)
